ChEMBL document CHEMBL4304807, “Modulators of KEAP-1 Activity as Potential Therapies for the Treatment of Neurodegenerative Disorders” (ACS Med Chem Lett, 2019)

Biological target: Kelch-like ECH-associated protein 1 (Homo sapiens, UniProt Q14145)
Experiment: Inhibition of KEAP1 interaction with Nrf2 in human HEK293 cells transfected with ARE-LUC assessed as activation of Nrf2 signaling pathway measured after 18 hrs by steady-Glo luciferase assay
Assay type: cell-based

Kelch-like ECH-associated protein 1, sequence (Q14145 whole entry): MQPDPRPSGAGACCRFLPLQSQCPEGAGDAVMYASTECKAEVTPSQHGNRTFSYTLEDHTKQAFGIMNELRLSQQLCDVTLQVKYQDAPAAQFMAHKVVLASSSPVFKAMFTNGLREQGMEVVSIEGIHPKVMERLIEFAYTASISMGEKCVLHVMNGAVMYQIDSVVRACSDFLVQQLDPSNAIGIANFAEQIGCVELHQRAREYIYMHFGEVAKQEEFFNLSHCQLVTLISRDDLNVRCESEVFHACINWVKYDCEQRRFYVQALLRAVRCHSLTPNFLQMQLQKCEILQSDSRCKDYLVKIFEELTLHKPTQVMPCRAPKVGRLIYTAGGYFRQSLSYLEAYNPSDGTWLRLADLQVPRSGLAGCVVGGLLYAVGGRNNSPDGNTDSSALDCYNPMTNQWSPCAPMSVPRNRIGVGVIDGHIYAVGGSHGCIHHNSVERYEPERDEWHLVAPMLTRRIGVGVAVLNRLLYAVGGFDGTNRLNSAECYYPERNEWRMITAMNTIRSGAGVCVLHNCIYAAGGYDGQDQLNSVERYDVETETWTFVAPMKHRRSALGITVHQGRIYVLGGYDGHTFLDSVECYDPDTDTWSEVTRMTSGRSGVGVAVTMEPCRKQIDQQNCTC

SMILES	EC50
COC1(c2ncc(F)cc2C(F)F)C=C(C#N)C(=O)C2(CC2)C1 (centres undefined)	18 nM
COC1(c2ncccc2C(F)(F)F)C=C(C#N)C(=O)C(C)(C)C1 (centres undefined)	24 nM
COC1(c2ncc(F)cc2OC(F)F)C=C(C#N)C(=O)C(C)(C)C1 (centres undefined)	8 nM
COC1(c2ncc(F)cc2-c2cnc(C)s2)C=C(C#N)C(=O)C(C)(C)C1 (centres undefined)	7 nM
